pIC50: −log10 of the molar value.
Columns and labels:
[1] = test system: Murine leukaemia L1210; assay: Cytotoxicity for L1210 cells in culture (Microculture Tetrazolium Assay); type: cell-based; conditions: Mus musculus, exposure 48 hours (4 periods of cell doubling), viable cells by Microculture Tetrazolium Assay
Protocol: Murine leukaemia L1210 was used in vitro. The cells are cultured in RPMI 1640 complete culture medium containing 10% foetal calf serum, 2 mM giutamine, 50 units/ml of penicillin, 50 μg/ml of streptomycin and 10 mM Hepes, pH: 7.4. The cells are distributed on microplates and exposed to the cytotoxic compounds for 4 periods of cell doubling, i.e. 48 hours. The number of viable cells is then quantified by means of a colorimetric assay, the Microculture Tetrazolium Assay (J. Carmichael et al., Cancer Res., 47, 936-942, (1987)). The results are expressed as IC50, the concentration of cytotoxic agent which inhibits the proliferation of the treated cells by 50%.

[2] = test system: Line P 388 (murine leukaemia); assay: Anti-tumour activity on line P 388 in vivo; design: species or system mice; conditions: for % T/C: P 388 inoculated i.p. into female B6D2F1 mice, product i.p. on day 1 at the optimum dose; for Anti-tumour activity on line P 388 (in words): P 388 model in B6D2F1 mice, i.p., d1
Protocol: Line P 388 (murine leukaemia) was supplied by the National Cancer Institute (Frederick, USA). The tumour cells (10^6 cells) were inoculated on day 0 into the peritoneal cavity of female B6D2F1 mice (Iffa Credo, France). Six mice weighing from 18 to 20 g were used for each experimental group. The products were administered by the intraperitoneal route on day 1.
The anti-tumour activity is expressed as % TIC: [formula]

[3] = test system: Human Colon Carcinoma HT29; assay: Anti-tumour activity on human colon carcinoma HT29 grafted onto nude mice; type: in vivo, nude mice (human HT29 xenograft)
Description: Line HT29 was supplied by the ATCC (American Type Culture Collection, Rockville, USA). The tumour cells were inoculated into female nude Swiss mice (10^7 cells per animal) by the subcutaneous route. The tumours were then removed and cut into fragments, which were grafted onto nude mice by the subcutaneous route. Once the tumour volume had reached from 50 to 100 mm^3, the mice were distributed into experimental groups containing 8 animals (control group) or 6 animals (treated groups) (day 0). The products were administered by the i.v. route once per week for 3 weeks. The tumours were measured twice per week and the tumour volumes were calculated according to the formula: volume (mm^3)=length (mm)×width^2 […]/2 [formula]
with V0 and Vt being the initial volume and the volume at measurement time t, respectively.

COc1cc2c(c3c1c(=O)c1cc4ccccc4cc1n3C)[C@H]1OC(=O)O[C@H]1C(C)(C)O2 (relative stereo) [Example 7, cis-7-Methoxy-4,4,15-trimethyl-3a,8,15,15c-tetrahydro-4H-benzo[b][1,3]dioxolo[4',5':4,5]pyrano[3,2-h]acridine-2,8-dione]
pIC50 [1]: 7.64
% T/C [2]: 327%
Anti-tumour activity on line P 388 (in words) [2]: very active

COc1cc2c(c3c1c(=O)c1ccccc1n3C)C=CC(C)(C)O2 [Acronycine]
pIC50 [1]: 4.57
% T/C [2]: 125%
Anti-tumour activity on line P 388 (in words) [2]: only marginally active

COc1cc2c(c3c1c(=O)c1cc4ccccc4cc1n3C)[C@@H](OC(C)=O)[C@@H](OC(C)=O)C(C)(C)O2 (relative stereo) [Example 5, (±)-cis-1,2-Diacetoxy-4-methoxy-3,3,14-trimethyl-2,3,7,14-tetrahydro-1H-benzo[b]pyrano[3,2-h]acridin-7-one]
Anti-tumour activity on line HT29 (in words) ([3]; HT29 model in nude mice, i.v.): very active
% T/C on day 32 ([3]; HT29 s.c. grafts in nude Swiss mice, i.v. d 0, 7, 14 at optimum dose, tumour volume): 17%
inhibition of growth of the HT29 tumour ([3]; on day 32, HT29 s.c. grafts in nude mice, i.v. once per week for 3 weeks): 83%

Reference: patent US6288073A, “Acronycine derivatives, preparation method and pharmaceutical compositions” (Adir et Compagnie, priority 1997, dated 2001)
